# From ChEMBL document CHEMBL3102797, “Kelsoenethiol and dikelsoenyl ether, two unique kelsoane-type sesquiterpenes, from the Formosan soft coral Nephthea erecta” (2014)
# Legend:
# Assay type in all cases: functional
# Details in all cases: read-out: ED50 (the source's name)
# HT-29 = test: Cytotoxicity against human HT-29 cells
# P388 = test: Cytotoxicity against mouse P388 cells
# A549 = test: Cytotoxicity against human A549 cells
Compound,EC50 (HT-29),EC50 (P388),EC50 (A549)
C=C(C)[C@H]1[C@@H]2[C@H](C)CC[C@@H]2[C@@]2(C)CC[C@@H]12,3.2 µg/mL,2.8 µg/mL,–
C/C(CS)=C1\[C@@H]2[C@H](C)CC[C@@H]2[C@@]2(C)CC[C@@H]12 (relative stereo),1.8 µg/mL,1.3 µg/mL,–
CO[C@H](C(=O)[C@@H](O)[C@@H](C)O)[C@@H]1Cc2cc3cc(O[C@H]4C[C@@H](O[C@@H]5C[C@@H](O)[C@H](O)[C@@H](C)O5)[C@H](O)[C@@H](C)O4)c(C)c(O)c3c(O)c2C(=O)[C@H]1O[C@H]1C[C@@H](O[C@@H]2C[C@@H](O)[C@@H](O[C@@H]3C[C@](C)(O)[C@H](O)[C@@H](C)O3)[C@@H](C)O2)[C@H](O)[C@@H](C)O1 [PLICAMYCIN],0.08 µg/mL,0.06 µg/mL,0.07 µg/mL
